In publication PMC6915728 (Nature Communications, 2019):

Experiments:
[1] = test system: E. coli; settings: previous laboratory evolution experiment; cited from earlier work
Excerpt: The results presented in this study may have important implications for the development of AMP-based therapies. Previous works reported several instances of cross-resistance interactions between membrane-targeting peptides (Supplementary Data 1), however, the potential for cross-resistance across AMPs with different modes of action has remained poorly understood. Specifically, while cross-resistance between host and therapeutic AMPs is certainly a realistic danger, not all AMPs are equally prone to cross-resistance. Given the immense diversity of AMPs with major differences in physicochemical ...

[2] = test system: E. coli essential gene hypomorphic alleles; assay: Chemical-genetic screen of 279 essential gene hypomorphs on high-density agar plates (AMPs and antibiotics); format: cell-based, Escherichia coli; settings: folA hypomorphic allele, sub-inhibitory AMP (50% growth inhibition of wild type), 32 °C, 20 h
Excerpt: Chemical-genetic profiling based on gene depletion captures a different aspect of resistance determinants than gene overexpression. […] To investigate the intrinsic AMP resistome, we initiated a chemical-genetic screen with a set of 279 partially depleted essential genes (hypomorphic alleles; see Methods) of E. coli. […] Then, using a well-established high-density agar plate assay[19],[33], we determined their chemical-genetic interaction profiles across the hypomorphic alleles (Supplementary Data 5). […]
Analogous to our E. coli synthetic genetic array approach, our chemical-genetics screening strategy involves robotic pinning of each Kan^R marked single essential gene hypomorph arrayed in 384 colony format on Luria Broth (LB) medium, in quadruplicate, onto the minimal medium containing AMPs under a selected concentration, in two replicates, generating eight replicates in total for each essential gene hypomorph. […] The normalized colony sizes from the AMP plate was subtracted from their corresponding colony screened without AMP to estimate the final hypomorphic-strain fitness score (sensitive or resistant), which is as an average of all eight replicate measurements recorded for each hypomorphic allele. A z-score distribution based p-value was calculated for all interactions and those with p ≤ 0.05 were deemed as significant interactions. […]

[3] = test system: bacterial species in which the gene showed activity; settings: Salmonella enterica serovar Typhimurium; ref http://aac.asm.org/content/52/8/2734.full.pdf+html; cited from earlier work

Row | Sequence | Emergence of resistant lines in laboratory evolution [1] | Effect of folA depletion on susceptibility [2] | Gene that modulates bacterial susceptibility to the AMP [3]
1 | RWCFRVCYRGICYRKCR [TPII, Tachyplesin II, antimicrobial peptide from Japanese horseshoe crab; disrupts cell membrane; cluster C1] | did not result in any significant resistant lines |  | 
2 | RRRPRPPYLPRPRPPPFFPPRLPPRIPPGFPPRFPPRFP [PR39, PR-39, cathelicidin, source pig; cluster C4] |  | sensitivity | sbmA
